Experiments:
HSP90β [1] = molecular target: T1, HSP90β (Homo sapiens, UniProt P08238, C366S); assay: colorimetric ATPase assay and MANT-ADP binding assay at […] TL; type: biochemical
T1 construct: gene HSP90AB1; recombinant HSP90β C366S

HSP90β [2] = molecular target: T2, HSP90β (Homo sapiens, UniProt P08238); assay: colorimetric ATPase assay with recombinant protein; also MANT-ADP binding and CDC37 pulldown; type: biochemical
T2 construct: gene HSP90AB1; recombinant HSP90β expressed in BL21(DE3) from pET52b
T2 sequence (P08238 2-724): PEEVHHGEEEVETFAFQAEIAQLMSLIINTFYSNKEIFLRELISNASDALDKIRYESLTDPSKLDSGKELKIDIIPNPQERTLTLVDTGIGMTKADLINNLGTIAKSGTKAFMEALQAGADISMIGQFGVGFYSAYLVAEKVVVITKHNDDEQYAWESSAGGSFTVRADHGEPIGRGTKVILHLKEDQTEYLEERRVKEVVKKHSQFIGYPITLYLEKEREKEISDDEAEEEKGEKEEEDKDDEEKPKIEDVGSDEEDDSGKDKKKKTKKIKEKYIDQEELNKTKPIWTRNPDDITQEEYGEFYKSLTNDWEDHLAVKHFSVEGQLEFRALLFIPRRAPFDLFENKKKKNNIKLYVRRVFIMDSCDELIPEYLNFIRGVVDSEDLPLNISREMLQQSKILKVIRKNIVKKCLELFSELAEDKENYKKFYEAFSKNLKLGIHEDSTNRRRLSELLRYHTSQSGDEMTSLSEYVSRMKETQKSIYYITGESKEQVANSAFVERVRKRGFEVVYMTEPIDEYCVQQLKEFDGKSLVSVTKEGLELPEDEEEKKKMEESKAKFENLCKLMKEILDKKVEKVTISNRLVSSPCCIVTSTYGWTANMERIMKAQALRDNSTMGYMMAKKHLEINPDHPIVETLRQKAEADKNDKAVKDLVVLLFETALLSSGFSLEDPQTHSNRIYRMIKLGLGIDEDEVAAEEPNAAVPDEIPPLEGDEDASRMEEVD

T1 sequence (P08238 2-724 C366S): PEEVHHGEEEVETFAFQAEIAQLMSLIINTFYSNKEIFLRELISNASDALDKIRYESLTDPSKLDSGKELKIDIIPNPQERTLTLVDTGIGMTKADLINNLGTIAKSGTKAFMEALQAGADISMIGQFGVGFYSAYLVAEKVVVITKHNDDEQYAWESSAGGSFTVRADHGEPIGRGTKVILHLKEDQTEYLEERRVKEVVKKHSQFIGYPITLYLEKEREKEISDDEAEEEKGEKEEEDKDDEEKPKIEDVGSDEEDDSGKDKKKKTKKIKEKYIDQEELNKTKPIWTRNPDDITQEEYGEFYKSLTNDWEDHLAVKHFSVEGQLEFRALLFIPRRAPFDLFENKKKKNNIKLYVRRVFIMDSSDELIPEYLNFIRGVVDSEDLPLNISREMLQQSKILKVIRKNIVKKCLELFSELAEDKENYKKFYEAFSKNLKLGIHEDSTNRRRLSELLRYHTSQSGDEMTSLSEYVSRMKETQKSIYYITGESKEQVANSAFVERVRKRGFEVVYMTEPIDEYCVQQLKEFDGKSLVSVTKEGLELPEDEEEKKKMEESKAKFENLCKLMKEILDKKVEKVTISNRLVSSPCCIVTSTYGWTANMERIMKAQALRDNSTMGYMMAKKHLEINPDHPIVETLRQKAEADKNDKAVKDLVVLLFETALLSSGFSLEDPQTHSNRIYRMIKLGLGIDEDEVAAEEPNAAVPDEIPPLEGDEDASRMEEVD

With `CC(C)[C@]12O[C@H]1[C@@H]1O[C@]13[C@]1(O[C@H]1C[C@H]1C4=C(CC[C@@]13C)C(=O)OC4)[C@@H]2O` [TL, Triptolide] the “colorimetric ATPase assay and MANT-ADP binding assay at 50 μM TL” value (HSP90β [1]) was “TL exhibited a similar inhibitory effect on both HSP90β^WT and HSP90β^C366S” and the IC50 (HSP90β [2]) was 29.9 µM.

Source: PMC5976465, “Triptolide, a HSP90 middle domain inhibitor, induces apoptosis in triple manner” (Oncotarget, 2018)
